# According to patent US12410155B2, “Salt form and crystal form of tetrahydrocyclohepta indazole compound” (Zhejiang Yangli Pharmaceutical Technology Co., Ltd., priority 2021, dated 2025):
# System: MDA-MB-134VI cells
# Test: MDA-MB-134VI cell proliferation inhibition assay (CTG)
# Assay type: cell-based
# Details: Homo sapiens, 240 h, 10 days
# Procedure: (5) HCC1428 and MDA-MB-134VI Cell Proliferation Inhibition Assay
# The initial concentration of the compound of formula (I) was set at 200 nM, followed by 4-fold serial dilutions to achieve ten concentration gradients.
# • 1) MDA-MB-134VI cells were cultured in DMEM complete growth medium containing 20% FBS and 1% PenStrep. • 2) When the cells in a T75 culture flask reached 80-90% cell fusion, they were digested with trypsin and collected. The cell passages used were the eighth generation for the first independent experiment and the sixth generation for the second independent experiment. • 3) The cells were centrifuged at 1000 rpm, resuspended in complete medium, and counted. The cell densities were 3.60×10^6 cells/mL for the first experiment and 1.93×10^6 cells/mL for the second experiment, with viability both exceeding 95%. • 4) Cell suspensions were prepared in complete medium at a density of 4.00×10^4 cells/mL for both experiments. […] 100 μL of CellTiter-Glo® reagent was added to each well. The plates were incubated at room temperature in the dark for 30 minutes. • 8) Luminescence values were read using a BMG plate reader.
# The IC50 (half-maximal inhibitory concentration) of the compound was obtained using the following nonlinear fitting formula: […]
smiles,measurement,setting,value
FCCCN1CC[C@H](Nc2cnc(C3=C(CC(F)(F)F)CCCc4c3ccc3[nH]nc(F)c43)cn2)C1 [Compound of formula (I)],IC50,First experiment,0.12 nM
same,IC50,Mean ± SD,0.31 ± 0.26 nM
same,IC50,Second experiment,0.49 nM
